Assays:
[1] = Inhibition of CXCR2-mediated chemotaxis in Ba/F3 cells expressing human CXCR2
[2] = Inhibition of CXCR1-mediated chemotaxis in Ba/F3 cells expressing human CXCR1

Row | Compound | IC50 [1] [nM] | IC50 [2] [nM]
1 | CC[C@@H](Nc1c(Nc2cccc(C(=O)N(C)C)c2O)c(=O)c1=O)c1cc(C)on1 [(R)-2-hydroxy-N,N-dimethyl-3-(2-(1-(5-methylisoxazol-3-yl)propylamino)-3,4-dioxocyclobut-1-enylamino)benzamide] | 12.2 | 
2 | CC[C@@H](Nc1c(Nc2cccc(C(=O)N(C)C)c2O)c(=O)c1=O)c1cc(Br)co1 [(R)-3-(2-(1-(4-bromofuran-2-yl)propylamino)-3,4-dioxocyclobut-1-enylamino)-2-hydroxy-N,N-dimethylbenzamide] | 2 | 917
3 | CC[C@@H](Nc1c(Nc2cccc(C(=O)N(C)C)c2O)c(=O)c1=O)c1ccccn1 [(R)-3-(3,4-dioxo-2-(1-(pyridin-2-yl)propylamino)cyclobut-1-enylamino)-2-hydroxy-N,N-dimethylbenzamide] | 4.5 | 

— BindingDB's records for doi:10.1016/j.bmcl.2008.01.024 (Schering-Plough Research Institute, 2008)
